# Measured values as given in patent publication US20060211740A1, “Novel compounds” (priority 2003, published 2006).
# “And” between values parts separate entries of the source, which are not always exact repeats. Identical values can stand only once. Counter-ions that a name gives are not always drawn.
# Experiments:
# Cathepsin D = Cathepsin D (Homo sapiens, UniProt P07339); assay: Cathepsin D Inhibitory Assay; type: biochemical; conditions: FAM-[SEVNLDAEFK]-TAMRA substrate, pH 4.5, 1 h at room temperature, fluorescence; read-out: inhibition (CatD), Assay (II)
# Cathepsin D, sequence (P07339 65-412, species assumed): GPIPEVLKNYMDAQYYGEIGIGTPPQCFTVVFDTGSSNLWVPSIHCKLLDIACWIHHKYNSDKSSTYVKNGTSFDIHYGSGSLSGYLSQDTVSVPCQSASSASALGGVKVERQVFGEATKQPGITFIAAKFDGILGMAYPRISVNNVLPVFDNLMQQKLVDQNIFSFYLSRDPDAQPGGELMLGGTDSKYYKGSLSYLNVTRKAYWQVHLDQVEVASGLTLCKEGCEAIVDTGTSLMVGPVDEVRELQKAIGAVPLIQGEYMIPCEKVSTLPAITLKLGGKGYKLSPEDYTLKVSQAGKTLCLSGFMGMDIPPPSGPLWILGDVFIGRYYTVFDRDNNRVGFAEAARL
# Procedure: (II) Cathepsin D Inhibitory Assay
# (§1) For each compound being assayed, in a 384 well plate, is added:—
# (§2) a) 1 μl of a DMSO solution of the test compound (IC50 curve uses ten 1 in 2 serial dilutions from 500 μM).
# (§3) This is prepared by diluting 2 ml of a 2 mM DMSO solution of the substrate into 400 ml of buffer (100 mM Sodium acetate pH=4.5, 1 l Milli-Q water, 0.06% Triton X-100 (0.5 ml/l), pH adjusted to 4.5 using glacial acetic add).
# c) 10 μl enzyme solution. This is prepared by diluting 1.6 ml of a 200 unit/ml (in 10 mM HCl) enzyme solution into 398.4 ml of buffer (prepared as above).
# (§4) Blank wells (enzyme solution replaced by buffer) are included as controls on each plate. Wells are incubated for 1 h at room temperature and fluorescence read using a Tecan Ultra Fluorimeter/Spectrophotometer (485 nm excitation, 535 nm emission).
# Asp-2 = Asp-2 (Homo sapiens, UniProt P56817); assay: Asp-2 Inhibitory Assay; type: biochemical; conditions: FAM-[SEVNLDAEFK]-TAMRA substrate, pH 4.5, 1 h at room temperature, fluorescence; read-out: inhibition (Asp2), Assay (I)
# Asp-2, sequence (P56817 46-501): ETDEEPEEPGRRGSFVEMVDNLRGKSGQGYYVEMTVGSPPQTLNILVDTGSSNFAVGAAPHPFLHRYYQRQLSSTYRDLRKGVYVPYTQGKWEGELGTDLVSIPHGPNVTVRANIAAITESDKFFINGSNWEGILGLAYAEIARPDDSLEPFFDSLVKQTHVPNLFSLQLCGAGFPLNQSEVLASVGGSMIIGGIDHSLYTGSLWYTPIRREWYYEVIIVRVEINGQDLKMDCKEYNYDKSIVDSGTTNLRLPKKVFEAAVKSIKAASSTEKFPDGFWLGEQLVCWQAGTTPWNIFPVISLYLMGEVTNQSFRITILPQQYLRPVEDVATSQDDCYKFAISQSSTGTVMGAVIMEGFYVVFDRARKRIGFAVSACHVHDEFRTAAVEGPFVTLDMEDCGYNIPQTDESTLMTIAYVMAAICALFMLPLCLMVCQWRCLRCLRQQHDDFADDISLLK
# Procedure: (I) Asp-2 Inhibitory Assay
# as §1, §2
# as §3, with “acid). Aminomethyl fluorescein (FAM) and tetramethyl rhodamine (TAMRA) are fluorescent molecules which co-operate to emit fluorescence at 535 nm upon cleavage of the […] peptide.” for “add).”
# c) 10 μl enzyme solution. This is prepared by diluting 16 ml of a 500 nM enzyme solution into 384 ml of buffer (prepared as above).
# as §4
IC50 (Cathepsin D),IC50 (Asp-2),SMILES
200 to 2500 nM,1 to 100 nM,"CS(=O)(=O)N(c1cccc(C#N)c1)c1cccc(C(=O)N[C@@H](Cc2ccccc2)[C@H](O)CNCc2cccc(C(F)(F)F)c2)c1 [Example E17, N-[(1S,2R)-1-Benzyl-2-hydroxy-3-(3-trifluoromethyl-benzylamino)-propyl]-[(3-cyano-phenyl)-methanesulfonyl-amino]-benzamide]"
200 to 2500 nM and 400 to 1000 nM,1 to 100 nM and 1 to 10 nM,C[C@H](NC[C@@H](O)[C@H](Cc1ccccc1)NC(=O)c1cc(N2CCCC2=O)cc(N(c2ccccc2)S(C)(=O)=O)c1)C(=O)NC1CCCCC1 [Example E41]
200 to 2500 nM,1 to 100 nM,"C#Cc1cc(C(=O)N[C@@H](Cc2ccccc2)[C@H](O)CNCc2cccc(C(F)(F)F)c2)cc(N(c2ccccc2)S(C)(=O)=O)c1 [Example E46, N-[(1S,2R)-1-Benzyl-2-hydroxy-3-(3-trifluoromethyl-benzylamino)-propyl]-ethynyl-(methanesulfonyl-phenyl-amino)-benzamide]"
200 to 2500 nM and 400 to 1000 nM,1 to 100 nM and 1 to 10 nM,"CS(=O)(=O)N(c1ccccc1)c1cc(C(=O)N[C@@H](Cc2ccccc2)[C@H](O)CNCc2cccc(OC(F)(F)F)c2)cc(N2CCCC2=O)c1 [Example E55, formate salt]"
200 to 2500 nM,1 to 100 nM,"CS(=O)(=O)N(c1ccccc1)c1cccc(C(=O)N[C@@H](Cc2ccccc2)[C@H](O)CNCc2cccc(C(F)(F)F)c2)c1F [Example E56, formate salt]"
200 to 2500 nM and 400 to 1000 nM,1 to 100 nM and 1 to 10 nM,CCSc1cc(C(=O)N[C@@H](Cc2ccccc2)[C@H](O)CNCc2cccc(C(F)(F)F)c2)cc(N(c2ccccc2)S(C)(=O)=O)c1 [Example E60]
200 to 2500 nM and 400 to 1000 nM,1 to 100 nM and 1 to 10 nM,"CS(=O)(=O)N(c1cccc(C#N)c1)c1cc(C(=O)N[C@@H](Cc2ccccc2)[C@H](O)CNCc2cccc(C(F)(F)F)c2)cc(N2CCCC2=O)c1 [Example E77, formate salt]"
200 to 2500 nM,1 to 100 nM,"C=C(C)c1cc(C(=O)N[C@@H](Cc2ccccc2)[C@H](O)CNCc2cccc(C(F)(F)F)c2)cc(N(c2ccccc2)S(C)(=O)=O)c1 [Example E83, N-[(1S,2R)-Benzyl-hydroxy-3-(3-trifluoromethyl-benzylamino)-propyl]-3-isopropenyl-5-(methanesulfonyl-phenyl-amino)-benzamide]"
